Measurements published in patent US11518760B2 (Liverpool School of Tropical Medicine, priority 2017, dated 2022).

These molecules were tested on C6/36 Aedes albopictus cell line infected with Wolbachia pipientis (Wolbachia strain wAlbB) (assay: In vitro insect cell line assay (anti-Wolbachia screen, SYTO 11 high content imaging)). Conditions: 168 h; C6/36 Aedes albopictus cells infected with Wolbachia pipientis wAlbB, 7 days incubation, SYTO 11 imaging; read-out: In vitro anti-Wolbachia activity.
Format: cell-based
Experimental: A C6/36 Aedes albopictus cell line infected with Wolbachia pipientis (Wolbachia strain wAlbB) derived from Aa23 A. albopictus cell line (O'Neill et al., 1997; Insect Mol Biol; Turner et al., (2006) J. Immunol. 7:1240-1249) was used to screen compounds. Cells were cultured in Leibovitz's L15+L-glutamine supplemented with heat-inactivated Foetal Calf Serum (HI-FCS), non-essential amino acids and tryptose phosphate broth. Culture medium was filter-sterilized through a 0.2 μm filter and stored at 4° C. Compounds were provided as 10 mM stocks in DMSO, diluted to 50 μM working stock to give final concentration of 5 μM on the test plate. Concentrated stocks were frozen at −20° C.
Prior to use in the screening assay, cell cultures were sub-passaged (6 days prior) to provide ˜90% confluent cells on Day 0 of screening assay. On Day 0 (assay set-up), the medium was removed from the stock culture flask and replaced with fresh medium. The cells were detached by scraping and cell density was calculated using an automated cell counter. The cells were then diluted at working density and aliquoted at 90 μl to each well of a Cell Carrier 384 well plate (Perkin Elmer). Cell plates were incubated at 26° C.
Control solution (DMSO-medium) was dispensed at 10 μl per well for “untreated” wells. Test solution (Drug-DMSO) was also dispensed at 10 μl (from working plate) per well for “treated” wells. The plates were incubated at 26° C., inside plastic wallet in incubator, for 7 days.
On Day 7, 25 μl of staining medium/dye (SYTO 11, Life Technologies) was added to each sample well and allowed to stain for 15 minutes in the dark. All the medium was removed from each sample well without disturbing the cells and replaced with 100 μl of fresh medium. Plates were imaged on the Operetta High Content Imaging system (Perkin Elmer) and analyzed using texture analysis through Harmony software (Perkin Elmer). The cell-based screen and analysis are described in detail in Clare et al. (2014) J Biomol Screen.
With CC(C)S(=O)(=O)c1nc(NCc2cccnc2C(F)(F)F)c2cccnc2n1 [Example 179, 2-(isopropylsulfonyl)-N-((2-(trifluoromethyl)pyridin-3-yl)methyl)pyrido[2,3-d]pyrimidin-4-amine] the EC50 was 10 to 100 nM. With CC(Nc1ncnc2c(C#N)csc12)c1ccccc1C(F)(F)F (stereo not shown) [Example 108, 4-((1-(2-(trifluoromethyl)phenyl)ethyl)amino)thieno[3,2-d]pyrimidine-7-carbonitrile] the EC50 was 1000 to 100000 nM. O=C(Nc1ccc(F)cc1)Nc1nc(NCc2cccnc2C(F)(F)F)c2cccnc2n1 [Example 204, 1-(4-fluorophenyl)-3-(4-(((2-(trifluoromethyl)pyridin-3-yl)methyl)amino)pyrido[2,3-d]pyrimidin-2-yl)urea] gave an EC50 of 10 to 100 nM. FC(F)(F)c1ncccc1CNc1nc(NC2CC2)nc2ncccc12 [Example 159, N^2-cyclopropyl-N^4-((2-(trifluoromethyl)pyridin-3-yl)methyl)pyrido[2,3-d]pyrimidine-2,4-diamine] showed an EC50 of 1 to 10 nM. Molecule C[C@@H]1COCCN1c1nc(NCc2cccnc2C(F)(F)F)c2cccnc2n1 [Example 211, (R)-2-(3-methylmorpholino)-N-((2-(trifluoromethyl)pyridin-3-yl)methyl)pyrido[2,3-d]pyrimidin-4-amine] has an EC50 of 10 to 100 nM. COc1nc(N(C)C(C)c2ccccc2C(F)(F)F)c2sccc2n1 (stereo not shown) [Example 68, 2-methoxy-N-methyl-N-(1-(2-(trifluoromethyl)phenyl)ethyl)thieno[3,2-d]pyrimidin-4-amine] gave an EC50 of 10 to 100 nM. CNCc1nc(NCc2ccccc2C(F)(F)F)c2sccc2n1 [Example 154, 2-((methylamino)methyl)-N-(2-(trifluoromethyl)benzyl)thieno[3,2-d]pyrimidin-4-amine] was tested, and the EC50 was 1000 to 100000 nM. With FC(F)(F)c1ccccc1CNc1nc(N2CCOCC23CCCC3)nc2ncccc12 [Example 286, 2-(9-oxa-6-azaspiro[4.5]decan-6-yl)-N-(2-(trifluoromethyl)benzyl)pyrido[2,3-d]pyrimidin-4-amine] the EC50 was 100 to 1000 nM. In the case of CC1(C)CCN(c2nc(NCc3cccnc3C(F)(F)F)c3cccnc3n2)CC1 [Example 233, 2-(4,4-dimethyipiperidin-1-yl)-N-((2-(trifluoromethyl)pyridin-3-yl)methyl)pyrido[2,3-d]pyrimidin-4-amine], the EC50 is reported as 10 to 100 nM. FC(F)O[C@@H]1CCN(c2nc(NCc3cccnc3C(F)(F)F)c3cccnc3n2)C1 [Example 280, (R)-2-(3-(difluoromethoxy)pyrrolidin-1-yl)-N-((2-(trifluoromethyl)pyridin-3-yl)methyl)pyrido[2,3-d]pyrimidin-4-amine] gave an EC50 of 0.01 to 1 nM. Molecule CC(C)Nc1nc(NCc2ccc(C(F)(F)F)cc2)c2ccccc2n1 [Example 111, N^2-isopropyl-N^4-(4-(trifluoromethyl)benzyl)quinazoline-2,4-diamine] has an EC50 of 1000 to 100000 nM. Work on COc1ccc2c(NCc3cccnc3C(F)(F)F)nc(N3CCOCC3C)nc2n1 (stereo not shown) [Example 305, 7-methoxy-2-(3-methylmorpholino)-N-((2-(trifluoromethyl)pyridin-3-yl)methyl)pyrido[2,3-d]pyrimidin-4-amine] yielded an EC50 of 1000 to 100000 nM. With CC1CCN(c2nc(NCc3cccnc3C(F)(F)F)c3cccnc3n2)CC1 [Example 312, 2-(4-methylpiperidin-1-yl)-N-((2-(trifluoromethyl)pyridin-3-yl)methyl)pyrido[2,3-d]pyrimidin-4-amine] the EC50 was 0.01 to 1 nM. CC1COCCN1c1nc(NCc2ccccc2C(F)(F)F)c2cncnc2n1 (stereo not shown) [Example 307, 2-(3-methylmorpholino)-N-(2-(trifluoromethyl)benzyl)pyrimido[4,5-d]pyrimidin-4-amine] showed an EC50 of 1000 to 100000 nM. CC(Nc1nc(Cl)nc2ccsc12)c1ccccc1C(F)(F)F (stereo not shown) [Example 52, 2-chloro-N-(1-(2-(trifluoromethyl)phenyl)ethyl)thieno[3,2-d]pyrimidin-4-amine] gave an EC50 of 10 to 100 nM. Molecule FC1(F)CC2(CCN(c3nc(NCc4ccccc4C(F)(F)F)c4cccnc4n3)CC2)C1 [Example 260, 2-(2,2-difluoro-7-azaspiro[3.5]nonan-7-yl)-N-(2-(trifluoromethyl)benzyl)pyrido[2,3-d]pyrimidin-4-amine] has an EC50 of 1 to 10 nM. FC(F)(F)c1nc(NCc2ccccc2C(F)(F)F)c2sccc2n1 [Example 56, 2-(trifluoromethyl)-N-(2-(trifluoromethyl)benzyl)thieno(3,2-d]pyrimidin-4-amine] showed an EC50 of 10 to 100 nM. Molecule Cc1csc2c(NC(C)c3ccccc3C(F)(F)F)ncnc12 (stereo not shown) [Example 105, 7-methyl-N-(1-(2-(trifluoromethyl)phenyl)ethyl)thieno[3,2-d]pyrimidin-4-amine] has an EC50 of 1000 to 100000 nM. In the case of CS(=O)(=O)C1CCN(c2nc(NCc3cccnc3C(F)(F)F)c3cccnc3n2)C1 (stereo not shown) [Example 263, 2-(3-(methylsulfonyl)pyrrolidin-1-yl)-N-((2-(trifluoromethyl)pyridin-3-yl)methyl)pyrido[2,3-d]pyrimidin-4-amine], the EC50 is reported as 100 to 1000 nM. With Clc1nc(NC2(c3ccccc3Cl)CC2)c2sccc2n1 [Example 47, 2-chloro-N-(1-(2-chlorophenyl)cyclopropyl)thieno[3,2-d]pyrimidine-4-diamine] the EC50 was 1000 to 100000 nM. With FC1(F)CN(c2nc(NCc3cccnc3C(F)(F)F)c3cccnc3n2)C1 [Example 201, 2-(3,3-difluoroazetidin-1-yl)-N-((2-(trifluoromethyl)pyridin-3-yl)methyl)pyrido[2,3-d]pyrimidin-4-amine] the EC50 was 10 to 100 nM. O=C(Nc1cccc(F)c1)Nc1nc(NCc2cccnc2C(F)(F)F)c2cccnc2n1 [Example 205, 1-(3-fluorophenyl)-3-(4-(((2-(trifluoromethyl)pyridin-3-yl)methyl)amino)pyrido[2,3-d]pyrimidin-2-yl)urea] gave an EC50 of 10 to 100 nM. FC1CCN(c2nc(NCc3cccnc3C(F)(F)F)c3cccnc3n2)C1 (stereo not shown) [Example 242, 2-(3-fluoropyrrolidin-1-yl)-N-((2-(trifluoromethyl)pyridin-3-yl)methyl)pyrido[2,3-a]pyrimidin-4-amine] gave an EC50 of 1 to 10 nM. Work on FC(F)Sc1nc(NCc2cccnc2C(F)(F)F)c2cccnc2n1 [Example 191, 2-((difluoromethyl)thio)-N-((2-(trifluoromethyl)pyridin-3-yl)methyl)pyrido[2,3-d]pyrimidin-4-amine] yielded an EC50 of 100 to 1000 nM. For C[C@H]1OCCN(c2nc(NCc3cccnc3C(F)(F)F)c3cccnc3n2)[C@H]1C [Example 287, 2-((2R,3S)-2,3-dimethylmorpholino)-N-((2-(trifluoromethyl)pyridin-3-yl)methyl)pyrido[2,3-d]pyrimidin-4-amine], the EC50 was 0.01 to 1 nM. In the case of FC1(F)CCN(c2nc(NCc3cccnc3C(F)(F)F)c3cccnc3n2)CC1 [Example 197, 2-(4,4-difluoropiperidin-1-yl)-N-((2-(trifluoromethyl)pyridin-3-yl)methyl)pyrido[2,3-d]pyrimidin-4-amine], the EC50 is reported as 1 to 10 nM. With FC(F)(F)c1ccccc1CNc1nc(NC2CC2)nc2ncccc12 [Example 156, N^2-cyclopropyl-N^4-(2-(trifluoromethyl)benzyl)pyrido[2,3-d]pyrimidine-2,4-diamine] the EC50 was 1 to 10 nM. Work on CC1(C#N)CCN(c2nc(NCc3ccccc3C(F)(F)F)c3cccnc3n2)CC1 [Example 261, (2-(trifluoromethyl)pyridin-3-yl)metha 4-methyl-1-(4-((2-(trifluoromethyl)benzyl)amino)pyrido[2,3-d]pyrimidin-2-yl)piperidine-4-carbonitrile] yielded an EC50 of less than 0.01 nM. FC(F)(F)c1ncccc1CNc1nc(N2CC3CC(C2)O3)nc2ncccc12 [Example 293, 2-(6-oxa-3-azabicyclo[3.1.1]heptan-3-yl)-N-((2-(trifluoromethyl)pyridin-3-yl)methyl)pyrido[2,3-d]pyrimidin-4-amine] was tested, and the EC50 was 1 to 10 nM. For Cc1ccc(-c2cnc3ncnc(NCc4cccnc4C(F)(F)F)c3c2)cn1 [Example 181], the EC50 was 1000 to 100000 nM. Molecule CC(C)Nc1nc(NCc2ccccc2S(C)(=O)=O)c2ncccc2n1 [Example 122, N^2-isopropyl-N^4-(2-(methylsulfonyl)benzyl)pyrido[3,2-d]pyrimidine-2,4-diamine] has an EC50 of 1000 to 100000 nM. FC(F)(F)c1ncccc1C1CCN1c1nc(N2CCC(Cl)CC2)nc2ncccc12 (stereo not shown) [Example 217, 2-(4-chloropiperidin-1-yl)-4-(2-(2-(trifluoromethyl)pyridin-3-yl)azetidin-1-yl)pyrido[2,3-d]pyrimidine] gave an EC50 of less than 0.01 nM. C[C@H]1COCCN1c1nc(NCc2cccnc2C(F)(F)F)c2cccnc2n1 [Example 210, (S)-2-(3-methylmorpholino)-N-((2-(trifluoromethyl)pyridin-3-yl)methyl)pyrido[2,3-d]pyrimidin-4-amine] showed an EC50 of 1 to 10 nM. Molecule C[C@@H]1COCCN1c1nc(N2CCC2c2cccnc2C(F)(F)F)c2cccnc2n1 (stereo partly drawn) [Example 288, (3R)-3-methyl-4-(4-(2-(2-(trifluoromethyl)pyridin-3-yl)azetidin-1-yl)pyrido[2,3-d]pyrimidin-2-yl)morpholine] has an EC50 of 1 to 10 nM.
